Experiments:
Assay in all cases: relative viability (nuclei count vs DMSO), 5 days (fraction); higher = more cells survive
[1] = compound: CS(=O)(=O)c1ccc(-c2cnc(N)c(C(=O)Nc3ccccc3)n2)cc1 [VE-821] + N=C(N)NC(=N)NCCc1ccccc1 [Phenformin] (partner 250 µM)
Method in brief: (§1)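 Relative viability divides the nuclei count in treated wells by that in vehicle wells. Lung cancer cell lines were seeded in 1536-well plates, dosed by pin tool the next day, and fixed and stained after 5 days in one step with final 0.05% Triton X-100, 1% formaldehyde and 1 ug/ml Hoechst. Dosing was a single drug or a fixed anchor-drug dose plus five library-drug doses (not always all listed) in √10 steps, and values are medians of duplicate plates imaged at 4×.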

[2] = compound: CS(=O)(=O)c1ccc(C(=O)Nc2ccc(Cl)c(-c3ccccn3)c2)c(Cl)c1 [Vismodegib] + CCNC(=O)c1noc(-c2cc(C(C)C)c(O)cc2O)c1-c1ccc(CN2CCOCC2)cc1 [Luminespib] (partner 0.01 µM)
Method in brief: as §1

[3] = compound: CS(=O)(=O)c1ccc(C(=O)Nc2ccc(Cl)c(-c3ccccn3)c2)c(Cl)c1 [Vismodegib] + C[C@@H](Oc1cc(-c2cnn(C3CCNCC3)c2)cnc1N)c1c(Cl)ccc(F)c1Cl [Crizotinib] (partner 1 µM)
Method in brief: as §1

[4] = compound: N#CC[C@H](C1CCCC1)n1cc(-c2ncnc3[nH]ccc23)cn1 [Ruxolitinib] + CS(=O)(=O)CCNCc1ccc(-c2ccc3ncnc(Nc4ccc(OCc5cccc(F)c5)c(Cl)c4)c3c2)o1 [Lapatinib] (partner 2 µM)
Method in brief: as §1

Cell Line | relative viability ([1]; first compound 0.08 µM) | relative viability ([1]; first compound 0.253 µM) | relative viability ([1]; first compound 0.8 µM) | relative viability ([1]; first compound 2.53 µM) | relative viability ([1]; first compound 8 µM) | relative viability ([2]; first compound 0.08 µM) | relative viability ([2]; first compound 0.253 µM) | relative viability ([2]; first compound 0.8 µM) | relative viability ([2]; first compound 2.53 µM) | relative viability ([2]; first compound 8 µM) | relative viability ([3]; first compound 0.08 µM) | relative viability ([3]; first compound 0.253 µM) | relative viability ([3]; first compound 0.8 µM) | relative viability ([3]; first compound 2.53 µM) | relative viability ([3]; first compound 8 µM) | relative viability ([4]; first compound 0.08 µM) | relative viability ([4]; first compound 0.253 µM) | relative viability ([4]; first compound 0.8 µM) | relative viability ([4]; first compound 2.53 µM) | relative viability ([4]; first compound 8 µM)
NCI-H1734 | 0.392 | 0.386 | 0.377 | 0.402 | 0.271 | 0.19 | 0.186 | 0.166 | 0.198 | 0.189 | 0.687 | 0.654 | 0.762 | 0.62 | 0.756 | 1.09 | 1 | 1.21 | 0.87 | 0.936
NCI-H1755 | 0.632 | 0.601 | 0.546 | 0.615 | 0.527 | 0.403 | 0.327 | 0.39 | 0.366 | 0.461 | 0.817 | 0.842 | 0.964 | 0.839 | 0.859 | 1.05 | 1.02 | 1.04 | 0.977 | 0.722
NCI-H1792 | 0.332 |  | 0.281 | 0.342 | 0.258 | 0.344 | 0.517 | 0.342 | 0.467 | 0.414 | 0.93 | 0.939 | 0.976 | 0.986 | 0.907 | 0.936 | 0.831 | 0.846 | 0.845 | 0.824
NCI-H1915 | 0.391 | 0.359 | 0.39 | 0.385 | 0.347 | 0.759 | 0.758 | 0.785 | 0.837 | 0.769 | 0.903 | 0.874 | 0.877 | 0.866 | 0.965 | 0.973 | 1 | 0.927 | 0.999 | 0.798
NCI-H1944 | 0.235 | 0.2 | 0.172 | 0.238 | 0.157 | 0.729 | 0.716 | 0.782 | 0.758 | 0.83 | 0.993 | 1.22 | 1.08 | 1.05 | 1.08 | 0.823 | 0.903 | 0.798 | 0.729 | 0.815
NCI-H1975 | 0.397 | 0.394 |  | 0.418 | 0.36 | 0.143 | 0.185 | 0.205 | 0.218 | 0.259 | 0.953 | 0.957 | 0.945 | 0.826 | 0.94 | 0.952 | 0.955 | 0.831 | 0.71 | 0.858
NCI-H1993 | 0.457 | 0.439 | 0.527 | 0.482 | 0.524 | 0.799 | 0.865 | 0.747 | 0.814 | 0.796 | 0.995 | 0.958 | 0.768 | 0.851 | 0.906 | 0.821 | 0.696 | 0.977 | 0.863 | 0.78
NCI-H2009 | 0.507 | 0.471 | 0.498 | 0.461 | 0.36 | 0.873 | 0.968 | 1.03 | 1.01 | 1.04 | 0.94 | 1.05 | 1.13 | 1.01 | 1.12 | 1.05 | 0.997 | 1.09 | 0.737 | 0.633

Reference: the supplement of paper PMC10307832
